Measured values reported in patent publication US11963527B2, “Compounds, compositions, and methods for altering insect and organism behavior” (BASF Corporation, priority 2013, dated 2024).

What was measured:
[1] = Stability test of Poncho 600 with α-terpineol, clothianidin content by HPLC; format: physicochemical; conditions: combined with alpha-terpineol; up to 54° C. for eight days
Procedure: Table 7 describes a stability test with a combination of α-terpineol and Poncho 600 evaluated at room temperature, 40° C., and 54° C. at zero time, 2 days, and 8 days as confirmed by HPLC.

[2] = Stability test of Poncho 600 with Eugenol, clothianidin content by HPLC; format: physicochemical; conditions: combined with Eugenol; up to 54° C. for seven days
Procedure: Table 6 describes a stability test with a combination of Eugenol and Poncho evaluated at room temperature, 40° C., and 54° C. at zero time, 3 days, and 7 days as confirmed by high performance liquid chromatography (HPLC).

[3] = tested on: honeybees; experiment: Honeybee repulsion feeding station experiment, repellent in 50% sucrose solution; format: in vivo; conditions: 2% by weight with 50% sucrose
Procedure: FIG. 1 describes the feeding station arrangement (A and B) for the honeybee repulsion experiments described herein. As set forth in FIG. 1, panel (A) sets forth the bee cage positions on the left portion of panel (A) with the randomized feeding station positions on the right portion of panel (A). Panel (B) sets forth an alignment of the randomized feeding station positions with a distance of two meters between feeding stations. A total of eight feeding stations were evaluated at a ten meter distance in front of the respective bee hives. The feeding stations were placed two meters apart from one another.
Honeybees were trained to deep feeders (eight positions), each containing a 50% sucrose solution for one day. After the honeybees were trained to each feeder, the 50% sucrose feeder at randomized positions 1-8 was replaced with a shallow feeder containing a combination of repelling compounds and a 50% sucrose solution according to Table 5. In accordance with FIGS. 5 and 6, 2% by weight of Camphor oil (T4), Ajowan oil (T5), Camphor powder (T6), Rosemary oil (T7), and 2-Decanone (T8) in combination with a 50% sucrose treatment were added to feeders on day two.
Table 5 describes active agents evaluated for bee repulsion and their randomized feeding station positions. As described in Table 5, T1 (control), T2 (control), T3 (control), T4 (Camphor oil), T5 (Ajowan oil), T6 (Camphor powder), T7 (Rosemary oil), and T8 (2-Decanone).
FIG. 5 evaluates the number of bees visiting a respective feed station over a time interval. FIG. 6 sets forth the mean number of honeybees visiting feeding station over a period of four hours.

SMILES | chemical stability of clothianidin content [1] | chemical stability of clothianidin content [2] | repellency to honeybees over the full 4 hour assessment period ([3]; 4 hours) | repellency to honeybees at 24 hours [3] | repellency to honeybees at 24 hours ([3]; listed as 2-Decanone)
CN/C(=N\[N+](=O)[O-])NCc1cnc(Cl)s1 [clothianidin] | exhibited chemical stability | exhibited chemical stability | – | – | –
CCCCCCCCC(C)=O [Compound 2-decanone, 2-decanone] | – | – | highly repellent | still repellent | exhibited repellency
